In ChEMBL document CHEMBL5126662, “Expanding the Ajudazol Cytotoxin Scaffold: Insights from Genome Mining, Biosynthetic Investigations, and Novel Derivatives” (J Nat Prod, 2022):
Active and inactive are the calls of the source.

Columns and labels:
Format in all cases: functional, cell-based
Settings in all cases: time 5.0 day
[1] = tested on: HepG2; test: Antiproliferative activity against human HepG2 cells assessed as reduction in cell viability after 5 days by MTT assay
[2] = tested on: HCT-116; test: Antiproliferative activity against human HCT-116 cells assessed as reduction in cell viability after 5 days by MTT assay
[3] = tested on: KB 3-1; test: Antiproliferative activity against human KB3.1 cells assessed as reduction in cell viability after 5 days by MTT assay

Measured: Activity

CC(C)=CC(=O)N(C)C/C=C/CC/C=C/C=C/CC(O)(CO)c1nc(C[C@@H](C)[C@H]2OC(=O)c3c(ccc(C)c3O)[C@@H]2O)co1 (some centres undefined)
active: [1] | [2] | [3]

C=C(C/C=C/C=C/CC/C=C/CN(C)C(=O)/C=C(\C)CO)c1nc(C[C@@H](C)[C@H]2OC(=O)c3c(ccc(C)c3O)[C@@H]2O)co1
active: [1] | [2] | [3]

CC(C)=CC(=O)N(C)C/C=C/CC/C=C/C=C/CC(C)(O)c1nc(C[C@@H](C)[C@H]2OC(=O)c3c(ccc(C)c3O)[C@@H]2O)co1 (some centres undefined)
active: [1] | [2] | [3]

CC(C)=CC(=O)N(C)C/C=C/CC/C=C/C=C/CC(O)(CO[C@@H]1O[C@H](CO)[C@@H](O)[C@H](O)[C@H]1O)c1nc(C[C@@H](C)[C@H]2OC(=O)c3c(ccc(C)c3O)[C@@H]2O)co1 (some centres undefined)
active: [1] | [2] | [3]

CC(C)=CC(=O)N(C)C/C=C/CC/C=C/C=C/C[C@@H](C)c1nc(C[C@@H](C)[C@H]2OC(=O)c3c(ccc(C)c3O)[C@@H]2O)co1
active: [1] | [2] | [3]

C=C(C/C=C/C=C/CC/C=C/CN(C)C(=O)C=C(C)C)c1nc(C[C@@H](C)[C@H]2OC(=O)c3c(ccc(C)c3O)[C@@H]2O)co1
active: [1] | [2] | [3]

C=C(C/C=C/C=C/CC/C=C/CN(C)C(=O)C=C(C)C)c1nc(C[C@@H](C)[C@H]2OC(=O)c3c(ccc(C)c3O)[C@@H]2O[C@@H]2O[C@H](CO)[C@@H](O)[C@H](O)[C@H]2O)co1
active: [1] | [2] | [3]

CC(C)=CC(=O)N(C)C/C=C/CC/C=C/C=C/CC(O)(CO[C@@H]1O[C@H](CO)[C@@H](O)[C@@H]1O)c1nc(C[C@@H](C)[C@H]2OC(=O)c3c(ccc(C)c3O)[C@@H]2O)co1 (some centres undefined)
active: [1] | [2] | [3]
